Results as given in PMC11239830, “Synthetic macrolides overcoming MLSBK-resistant pathogens” (Cell Discovery, 2024).
Converted amounts (≈) assume the structure as drawn. Read-outs that look alike come from different tables or passages of the source.

Tests used:
[1] = system: S. pneumoniae; assay: MIC, broth microdilution; format: cell-based, Streptococcus pneumoniae
Method in brief: (§1)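 Minimum inhibitory concentrations were measured by broth microdilution following CLSI guidelines. Plates were incubated at 37 °C for 16–20 h before results were read and recorded, and each determination was repeated at least three times.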

[2] = system: S. pyogenes; assay: MIC, broth microdilution; format: cell-based, Streptococcus pyogenes
Method in brief: as §1

[3] = system: S. aureus; assay: MIC, broth microdilution; format: cell-based, Staphylococcus aureus
Method in brief: as §1

[4] = system: M. catarrhalis; assay: MIC, broth microdilution; format: cell-based, Moraxella catarrhalis; details: Moraxella catarrhalis; M. catarrhalis 13L332, Ery-S; read-out: MIC
Method in brief: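 Compounds were diluted 2-fold in cation-adjusted Mueller-Hinton broth and mixed with bacteria to a final 5 × 10^5 CFU/mL. Plates were then incubated 16–20 h at 37 °C and growth was scored by eye, per CLSI guidelines.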

[5] = system: E. coli JW5503 ΔtolC pDualrep2; assay: pDualrep2 dual-reporter assay; format: cell-based; details: red = Katushka2S, translation inhibitors; green = RFP, DNA damage
[6] = system: 15B196 S. aureus ribosomes (A2058-methylated); assay: PURE in vitro translation inhibition assay; format: biochemical, Staphylococcus aureus; details: mean ± SD
Procedure: (§2) To validate the in vitro activity of our compounds, we employed an in vitro reconstituted E. coli Protein synthesis Using a Recombinant Elements (PURE) translation system, substituting E. coli ribosomes with the purified S. aureus ribosomes.
(§3) 5 μL of PURE reaction mix that translates a gene encoding the Nanoluc luciferase was set up in the presence or absence of tested compounds. Protein synthesis was initiated by incubating reactions at 37 °C for 60 min and stopped by placing on ice for 5 min. Luciferase activity was quantified using the Nano-Glo luciferase assay system and read on a GloMax 20/20 luminometer (Promega, USA). For each compound, the in vitro translation inhibition assay was performed in three biological triplicates over a range of concentrations from 0.001 μM to 1000 μM. A compound-free control was used to normalize luminescence measurements. The calculated luminescence percentages were plotted against compound concentrations on a semilog scale using GraphPad Prism.

[7] = system: WT S. aureus ribosomes; assay: PURE in vitro translation inhibition assay; format: biochemical, Staphylococcus aureus; details: mean ± SD
Procedure: as §2, §3

[8] = CCK-8 assay for cytotoxicity; format: cell-based, human; details: human, HEK293T cells, HEK293T cell viability
Procedure: HepG2 cells (6 × 10^3) and HEK293T cells (4 × 10^3) were seeded into 96-well plates in 90 μL of DMEM medium containing 10% FBS per well. […] After overnight incubation, the test compound stock solution was diluted with DMEM medium containing 10% FBS to every target concentration, and 10 μL of each was added to each well. Three parallel experiments were set up for each compound. After incubation for 48 h, 10 μL of cell counting kit-8 (CCK-8) reagent was added to each well in sequence according to the manufacturer’s instructions. […] This experiment was independently repeated three times. The data were processed by GraphPad Prism.

[9] = Staphylococcus aureus, MRSA, MRSA (13)
[10] = Staphylococcus aureus, i-MLSB S. aureus (10)

Work on `CC[C@H]1OC(=O)[C@H](C)[C@@H](OC(=O)NCCCCCCC#Cc2ccc3c(=O)c(C(=O)O)cn(C)c3c2)[C@H](C)[C@@H](O[C@@H]2O[C@H](C)C[C@H](N(C)C)[C@H]2O)[C@](C)(OC)C[C@@H](C)C(=O)[C@H](C)[C@H]2NC(=O)O[C@@]21C` [MCX-219] yielded an MIC ([1]; S. pneumoniae 07P390, c-ermB, listed as 88g) of 0.06 µg/mL (≈ 0.062 µM), an MIC ([1]; S. pneumoniae 21C315, Clinical, c-ermB) of 0.016 µg/mL (≈ 0.0165 µM) and an MIC ([1]; S. pneumoniae 21D016, Clinical, c-ermB, mef) of 0.03 µg/mL (≈ 0.031 µM). For the same compound, the MIC ([1]; S. pneumoniae 21D020, Clinical, c-ermB, mef) was 0.03 µg/mL (≈ 0.031 µM), the MIC ([1]; S. pneumoniae 21M277, Clinical, c-ermB) was 0.25 µg/mL (≈ 0.258 µM) and the MIC ([1]; S. pneumoniae 21Q352, Clinical, i-MLSB) was ≤ 0.002 µg/mL. For the same compound, the MIC ([1]; S. pneumoniae 21Q353, Clinical, i-MLSB) was ≤ 0.002 µg/mL, the MIC ([1]; S. pneumoniae 21W257, Clinical, c-ermB, mef) was 0.016 µg/mL (≈ 0.0165 µM) and the MIC ([1]; S. pneumoniae 21X435, Clinical) was ≤ 0.002 µg/mL. For the same compound, the MIC ([1]; S. pneumoniae ATCC49619) was ≤ 0.002 µg/mL, the MIC ([1]; Streptococcus pneumoniae, ATCC49619, S. pneumoniae ATCC49619, Ery-S, read-out: MIC) was ≤ 0.008 µg/mL and the MIC ([1]; Streptococcus pneumoniae, S. pneumoniae 05O173, c-ermB, mef, read-out: MIC) was 2 µg/mL (≈ 2.07 µM). For the same compound, the MIC ([1]; Streptococcus pneumoniae, S. pneumoniae 07P390, c-ermB, read-out: MIC) was 0.03 µg/mL (≈ 0.031 µM), the MIC ([1]; Streptococcus pneumoniae, S. pneumoniae PU09, mef, read-out: MIC) was ≤ 0.008 µg/mL and the MIC ([2]; S. pyogenes 01-968, Clinical, i-ermB) was ≤ 0.002 µg/mL. For the same compound, the MIC ([2]; S. pyogenes 12-207, Clinical, mef) was 0.016 µg/mL (≈ 0.0165 µM), the MIC ([2]; S. pyogenes 21C303, Clinical, c-ermB) was 0.5 µg/mL (≈ 0.517 µM) and the MIC ([2]; S. pyogenes 21D184, Clinical, c-ermB) was 0.5 µg/mL (≈ 0.517 µM). It also gave an MIC ([2]; S. pyogenes 21D199, Clinical, c-ermB) of 1 µg/mL (≈ 1.03 µM), an MIC ([2]; S. pyogenes 21D200, Clinical, c-ermB) of 0.25 µg/mL (≈ 0.258 µM) and an MIC ([2]; S. pyogenes 21K003, Clinical, mef) of 0.06 µg/mL (≈ 0.062 µM). The MIC ([2]; S. pyogenes 21M063, Clinical, c-ermB) was 0.25 µg/mL (≈ 0.258 µM), the MIC ([2]; S. pyogenes 21W186, Clinical, c-ermTR) was 4 µg/mL (≈ 4.14 µM) and the MIC ([2]; Streptococcus pyogenes, S. pyogenes 01-968, i-ermTR (Table S5), read-out: MIC) was ≤ 0.008 µg/mL. For the same compound, the MIC ([2]; Streptococcus pyogenes, S. pyogenes 12-206, c-ermB (Table S5), read-out: MIC) was 0.12 µg/mL (≈ 0.124 µM), the MIC ([2]; Streptococcus pyogenes, S. pyogenes 12-206, c-ermTR, read-out: MIC) was 0.06 µg/mL (≈ 0.062 µM) and the MIC ([3]; S. aureus 15B196, Clinical, MRSA, c-ermB) was 1 µg/mL (≈ 1.03 µM). It also gave an MIC ([3]; S. aureus 21B200, Clinical, MRSA, c-ermB) of 4 µg/mL (≈ 4.14 µM), an MIC ([3]; S. aureus 21B207, Clinical, MRSA, c-ermB) of 2 µg/mL (≈ 2.07 µM) and an MIC ([3]; S. aureus 21B212, Clinical, MSSA, i-ermC) of 0.25 µg/mL (≈ 0.258 µM). The MIC ([3]; S. aureus 21C173, Clinical, MSSA, i-ermC) was 0.25 µg/mL (≈ 0.258 µM), the MIC ([3]; S. aureus 21C174, Clinical, MSSA, c-ermB) was 0.25 µg/mL (≈ 0.258 µM) and the MIC ([3]; S. aureus 21C187, Clinical, MRSA, i-ermA) was 0.12 µg/mL (≈ 0.124 µM). The MIC ([3]; S. aureus 21D112, Clinical, MSSA, c-ermB) was 16 µg/mL (≈ 16.5 µM), the MIC ([3]; S. aureus 21D115, Clinical, MSSA, i-ermC) was 0.25 µg/mL (≈ 0.258 µM) and the MIC ([3]; S. aureus 21F198, Clinical, MRSA, c-ermB) was 1 µg/mL (≈ 1.03 µM). It also gave an MIC ([3]; S. aureus 21F206, Clinical, MSSA, c-ermB) of 8 µg/mL (≈ 8.27 µM), an MIC ([3]; S. aureus 21F207, Clinical, MRSA, i-ermC) of 0.25 µg/mL (≈ 0.258 µM) and an MIC ([3]; S. aureus 21K194, Clinical, MSSA, i-ermC) of 0.06 µg/mL (≈ 0.062 µM). The MIC ([3]; S. aureus 21N354, Clinical, MRSA, c-ermB) was 1 µg/mL (≈ 1.03 µM), the MIC ([3]; S. aureus 21P191, Clinical, MSSA, c-ermC) was 16 µg/mL (≈ 16.5 µM) and the MIC ([3]; S. aureus 21P404, Clinical, MSSA, i-ermC) was 0.25 µg/mL (≈ 0.258 µM). The MIC ([3]; S. aureus 21P407, Clinical, MRSA, c-ermB) was 8 µg/mL (≈ 8.27 µM), the MIC ([3]; S. aureus 21Q253, Clinical, MRSA, c-ermB) was 1 µg/mL (≈ 1.03 µM) and the MIC ([3]; S. aureus 21R216, Clinical, MSSA, c-ermC) was 16 µg/mL (≈ 16.5 µM). For the same compound, the MIC ([3]; S. aureus 21T141, Clinical, MRSA, c-ermB) was 1 µg/mL (≈ 1.03 µM), the MIC ([3]; S. aureus 21X388, Clinical, i-ermA (MRSA in Table S9, MSSA in Fig. 2a)) was 0.06 µg/mL (≈ 0.062 µM) and the MIC ([3]; S. aureus 21Y223, Clinical, MRSA, i-ermC) was 0.25 µg/mL (≈ 0.258 µM). For the same compound, the MIC ([3]; S. aureus ATCC29213) was 0.12 µg/mL (≈ 0.124 µM), the MIC ([3]; S. aureus PU32, Clinical, MRSA, i-ermA) was 0.25 µg/mL (≈ 0.258 µM) and the MIC50 [3, 9] was 1 µg/mL (≈ 1.03 µM). It also gave an MIC90 [3, 9] of 4 µg/mL (≈ 4.14 µM), an MIC50 ([3]; Staphylococcus aureus, MSSA, MSSA (10)) of 0.25 µg/mL (≈ 0.258 µM) and an MIC ([3]; Staphylococcus aureus, S. aureus 15B196, c-ermB, read-out: MIC) of 1 µg/mL (≈ 1.03 µM). The MIC ([3]; Staphylococcus aureus, S. aureus PU32, i-ermA, read-out: MIC) was 0.25 µg/mL (≈ 0.258 µM), the MIC50 ([3]; Staphylococcus aureus, c-MLSB (constitutive) S. aureus (13)) was 2 µg/mL (≈ 2.07 µM) and the MIC90 ([3]; Staphylococcus aureus, c-MLSB S. aureus (13)) was 16 µg/mL (≈ 16.5 µM). For the same compound, the MIC50 [3, 10] was 0.25 µg/mL (≈ 0.258 µM), the MIC90 [3, 10] was 0.25 µg/mL (≈ 0.258 µM) and the MIC90 ([3]; Staphylococcus aureus, MSSA (10)) was 16 µg/mL (≈ 16.5 µM). For the same compound, the MIC [4] was 0.5 µg/mL (≈ 0.517 µM), the “dual-reporter inhibition zone colour” value [5] was “red color inhibition zone” and the IC50 [6] was 570 ± 140 nM. The IC50 [7] was 720 ± 370 nM and the CC50 at 48 h [8] was 25700 ± 4080 nM.
